Measured values from patent US6962920B2, “Pyrimidine derivatives and methods of making and using these derivatives” (Duquesne University of the Holy Ghost, priority 1992, dated 2005).
Like-named read-outs stand apart in the source and are kept apart here.

Legend:
[1] = target: T1, RL DHFR (Rattus norvegicus, UniProt Q920D2); assay: Inhibition of DHFR from rat liver; format: biochemical
T1 construct: Toxoplasmosis gondii (Tg) and rat liver (RL); from tissue; host or cells: rat liver
T1 sequence (Q920D2 1-187): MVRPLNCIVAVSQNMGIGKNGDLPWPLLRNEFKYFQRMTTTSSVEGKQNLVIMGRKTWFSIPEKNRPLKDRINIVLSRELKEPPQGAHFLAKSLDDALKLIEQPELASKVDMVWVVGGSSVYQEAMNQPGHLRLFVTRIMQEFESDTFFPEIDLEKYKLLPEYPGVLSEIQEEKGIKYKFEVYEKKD
Protocol: (§1) The selectivity ratio is a measure of the selectivity of a compound for Pc DHFR or Tg DHFR and is expressed as the IC50 value of the DHFR from rate liver (RL) divided by the IC50 value of either the Pc DHFR or the Tg DHFR, depending on which organism the compounds are being tested against. For example, the selectivity ratio of a compound is calculated by the following formula: [formula]

[2] = target: T2, Pc DHFR (Pneumocystis carinii, UniProt P16184); assay: biochemical
T2 sequence (P16184 1-206): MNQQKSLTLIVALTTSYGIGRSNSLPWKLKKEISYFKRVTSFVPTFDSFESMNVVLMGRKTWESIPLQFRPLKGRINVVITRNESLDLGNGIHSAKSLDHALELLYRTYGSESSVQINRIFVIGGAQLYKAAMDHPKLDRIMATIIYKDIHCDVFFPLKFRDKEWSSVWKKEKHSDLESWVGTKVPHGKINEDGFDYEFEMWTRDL

[3] = target: T2, Pc DHFR; format: biochemical; details: for Selectivity ratio rl/pc: IC50 rlDHFR/IC50 pcDHFR
Protocol: as §1

[4] = target: T3, Tg DHFR (Toxoplasma gondii, UniProt Q07422); assay: biochemical; format: biochemical; details: for rl/tg: selectivity ratio
T3 sequence (Q07422 1-610): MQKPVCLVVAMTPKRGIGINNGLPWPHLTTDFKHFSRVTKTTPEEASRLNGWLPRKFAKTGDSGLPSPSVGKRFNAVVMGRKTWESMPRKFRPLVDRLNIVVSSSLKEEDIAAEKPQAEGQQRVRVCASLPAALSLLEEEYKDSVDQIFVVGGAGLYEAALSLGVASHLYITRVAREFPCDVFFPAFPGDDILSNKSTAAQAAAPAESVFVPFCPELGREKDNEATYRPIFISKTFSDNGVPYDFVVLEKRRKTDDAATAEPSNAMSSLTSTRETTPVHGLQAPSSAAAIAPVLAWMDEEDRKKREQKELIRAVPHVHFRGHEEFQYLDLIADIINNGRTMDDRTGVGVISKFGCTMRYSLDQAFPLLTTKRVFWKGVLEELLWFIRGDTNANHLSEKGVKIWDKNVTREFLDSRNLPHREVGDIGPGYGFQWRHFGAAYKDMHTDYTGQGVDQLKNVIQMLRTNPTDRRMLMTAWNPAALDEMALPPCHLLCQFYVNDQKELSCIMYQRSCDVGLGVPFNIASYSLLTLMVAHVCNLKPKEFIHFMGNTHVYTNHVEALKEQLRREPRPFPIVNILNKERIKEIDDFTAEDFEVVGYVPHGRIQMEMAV
Protocol: as §1

[5] = target: E-coli thymidylate synthase (ecTS) (Escherichia coli, UniProt P0A884); assay: Inhibition of E. coli thymidylate synthase; format: biochemical; details: for % in parentheses after the > value, ecTS: Table 22, at the concentration given
Protocol: All of the compounds were tested against human cells, L. casei, E. coli, and S. faecium.

[6] = Table 16, read-out: RL DHFR IC50
[7] = Table 16, read-out: Pc DHFR IC50
[8] = Table 25, read-out: Inhibitor Concentrations (IC50) pcDHFR
[9] = Table 25, read-out: Inhibitor Concentrations (IC50) rlDHFR
[10] = Table 16, read-out: Tg DHFR IC50
[11] = Table 25, read-out: Inhibitor Concentrations (IC50) tgDHFR
[12] = Table 22, read-out: pcDHFR IC50
[13] = Table 22, read-out: tgDHFR IC50
[14] = Table 22, read-out: rlDHFR IC50

E-coli thymidylate synthase (ecTS), sequence (P0A884 whole entry): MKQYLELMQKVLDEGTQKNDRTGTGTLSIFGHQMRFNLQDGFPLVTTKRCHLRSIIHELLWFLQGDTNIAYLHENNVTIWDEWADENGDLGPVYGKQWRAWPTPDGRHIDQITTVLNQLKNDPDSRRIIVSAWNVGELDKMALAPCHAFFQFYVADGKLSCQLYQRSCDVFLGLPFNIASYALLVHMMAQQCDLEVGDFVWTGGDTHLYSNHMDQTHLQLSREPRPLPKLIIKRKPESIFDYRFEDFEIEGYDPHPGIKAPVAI

Structure (SMILES)	IC50 [2, 12] [µM]	IC50 [5] [µM]	% in parentheses after the > value, ecTS [5] [%]	IC50 [4, 13] [µM]	rl/tg ([4]; Table 22)	IC50 [1, 14] [µM]	other results
Nc1nc(N)c2c(CNc3ccccc3-c3ccccc3)coc2n1 [Compound 167, 2,4-Diamino-5-[(2′-phenylanilino)methyl]furo[2,3-d]pyrimidine]							IC50 [1, 6]: 187 µM
Nc1nc(N)c2c(CNc3cc(Cl)ccc3Cl)coc2n1 [Compound 169, 2,4-Diamino-5-[(2′,5′-dichloroanilino)methyl]furo[2,3-d]pyrimidine]							IC50 [2, 7]: 50.9 µM; IC50 [2, 8]: 50.9 µM; Selectivity ratio rl/pc [3]: 1.4; Selectivity Ratio RL/Pc ([3]; Table 16): 1.4; IC50 [1, 9]: 71.9 µM
CN(Cc1coc2nc(N)nc(N)c12)c1ccc(Cl)c(Cl)c1 [Compound 171, 2,4-Diamino-5-[(N-methyl-3′,4′-dichloroanilino)methyl]furo[2,3-d]pyrimidine]							IC50 [2, 7]: 44.8 µM; IC50 [2, 8]: 44.8 µM; IC50 [4, 10]: > 27 µM; IC50 [4, 11]: > 27 µM; IC50 [1, 6]: > 27 µM; IC50 [1, 9]: > 27 µM
CN(Cc1coc2nc(N)nc(N)c12)c1cc(Cl)c(Cl)c(Cl)c1 [Compound 172, 2,4-Diamino-5-[(N-methyl-3′,4′,5′-trichloroanilino)methyl]furo[2,3-d]-pyrimidine]							IC50 [2, 7]: 284 µM; IC50 [2, 8]: 284 µM
COc1cccc(NCc2coc3nc(N)nc(N)c23)c1 [Compound 175, 2,4-Diamino-5-[(3′-methoxyanilino)methyl]furo[2,3-d]-pyrimidine]							IC50 [2, 7]: > 31.3 µM; IC50 [2, 8]: > 31.3 µM; IC50 [4, 10]: > 31.3 µM; IC50 [4, 11]: > 31.3 µM; IC50 [1, 6]: > 31.3 µM; IC50 [1, 9]: > 31.3 µM
COc1ccc(OC)c(NCc2c[nH]c3nc(N)nc(O)c23)c1 [Compound 408]	> 47	> 160	21	2.2	>21	> 47	
COc1cc(NCc2c[nH]c3nc(N)[nH]c(=O)c23)cc(OC)c1 [Compound 409]	> 20	> 160	0	2.6	>8	> 20	
COc1ccc(NCc2c[nH]c3nc(N)[nH]c(=O)c23)c(OC)c1 [Compound 410]	> 16	> 160	8	7.1	>1.4	> 16	
COc1cc(NCc2c[nH]c3nc(N)nc(O)c23)cc(OC)c1OC [Compound 411]	> 22	> 290	8	6.9	>3	> 22	
Nc1nc(O)c2c(CNc3cc(Cl)cc(Cl)c3)c[nH]c2n1 [Compound 413]	66.2			3	>21	> 63	
Nc1nc2[nH]cc(CNc3ccc(Cl)cc3Cl)c2c(=O)[nH]1 [Compound 414]	> 15			2.2	>7	> 15	
Nc1nc(O)c2c(CNc3cccc(Cl)c3)c[nH]c2n1 [Compound 415]	> 26	> 180	26	3.5	>7	> 26	
COc1ccc(OC)c(Cc2cnc3nc(N)nc(N)c3c2C)c1 [PTX, piritrexim, reference compound]							IC50 ([1]; Table 7, read-out: RL DHFR IC50): 0.001 µM
CCOc1cc(Cc2cnc(N)nc2N)cc(OCC)c1-n1cccc1 [epiroprim, reference compound]							Selectivity ratio rl/pc [3]: 12.8; Selectivity ratio rl/tg ([4]; IC50 rlDHFR/IC50 tgDHFR): 70.6; IC50 [4, 11]: 0.48 µM
